Source: publication PMC11899342, “Novel Triazeneindole Antibiotics: Synthesis and Hit-to-Lead Optimization” (International Journal of Molecular Sciences, 2025)
≈ marks a conversion by molar mass, not a printed value. Read-outs that look alike come from different tables or passages of the source.

Columns and labels:
[1] = tested on: HepG2 human liver carcinoma cells; assay: MTT cytotoxicity (hepatotoxicity) on HepG2; assay type: cell-based; details: for IC50: Homo sapiens, HepG2, 24 h
Protocol: (§1) The primary screening of 22 substances was performed on human embryonic fibroblasts (HEFs). […] The HepG2 cell line was obtained from the American Type Culture Collection (ATCC cat. # HB-8065). The primary HEF cells (normal human embryonic fibroblasts) were derived from human embryonic stem cells. The cells were cultured in DMEM/F12 (1:1) medium containing 10% fetal bovine serum (Invitrogen, Carlsbad, CA, USA) at 37 °C and 5% CO2, according to standard mammalian tissue culture protocols and sterile technique. […] The incubation time with the substance was 24 h for all substances and cell lines. Cell detachment by trypsin, centrifugation, and counting in a hemocytometer were performed 16 h before the addition of the substance. For correct counting of the HepG2 cells, the cell suspension was passed through a syringe needle to get rid of cell aggregates. The cells were placed in the wells of a 96-well plate. The number of cells was selected according to the properties of the cell line and the final optical density in the experiment. Fibroblasts and hepatocytes were used in the amount of 10 thousand cells per well in 100 μL of DMEM/F12 medium supplemented with 10% fetal bovine serum. The substances were added to 100 µL of medium in the wells so that the final concentrations were 50, 25, 12.5, 6.25, 3.125, and 1.62 mg/L. The final well volume was 200 µL. The medium containing fetal bovine serum, without added substances, was used as a negative control. After 24 h, excessive amounts of medium were discarded. A total of 30 µL of MTT solution (5 mg/mL in PBS) was added to each well. After the precipitation of formazan crystals (3 h incubation), they were dissolved using 100 μL of dimethyl sulfoxide. The optical density (OD) was measured at 570 nm using a microplate reader (Eppendorf). For every condition, the cell viabilities were assessed in at least three independent experiments for every cell culture. Cell survival was calculated using the following formula:(OD of treated cells − OD blank)/(OD of control cells − OD blank) × 100%, where OD blank represents the OD values in wells without cells but with the addition of the MTT and DMSO solutions. The results were presented in the form of cytotoxicity curves, and the graphs were also plotted in a Microsoft Excel program; the calculation of the IC50 half-maximal inhibition concentration values was performed in a GraphPad Prism 6.0 (GraphPad Software Inc., San Diego, CA, USA) program, based on the equations of the cytotoxicity curves.

[2] = Solubility in water by HPLC; assay type: physicochemical; details: for solubility at 5 min: water, kinetic from dmso stock
Protocol: The solubility of the compounds in water was assessed using HPLC analysis. Two 1.0 mg portions of the test compounds were dissolved in 10 μL of dimethyl sulfoxide; 1.0 mL of acetonitrile was added to one sample (standard), and 1.0 mL of water was added to the second sample (tested sample). Both vials were mixed in a shaker for 5 min, then centrifuged at 10,000 rpm for 5 min. The supernatants were collected and analyzed using Agilent 1290 Infinity (Agilent Technologies, Santa Clara, CA, USA) with a YMC-Triart C18 50 × 2.0 mm, 1.9 μm column. The concentration of the test compound in water was determined by comparing the peak areas of the standard (concentration 1.0 mg/mL) and the tested sample.

MRSA = assay: Selectivity index (average IC50 on eukaryotic cells / average MIC on MRSA); assay type: cell-based, Staphylococcus aureus; details: average IC50 on eukaryotic cells divided by average MIC on MRSA
Protocol: The selectivity index was calculated for each compound as the average IC50 on eukaryotic cells divided by the average MIC on MRSA (Table 2).

MRSA clinical isolates = assay: MIC by broth microdilution against multidrug-resistant MRSA clinical isolates; assay type: cell-based, Staphylococcus aureus; details: for MIC Range Against 8 MRSA Strains: 8 multidrug-resistant MRSA clinical isolates, tested 0.125-1 mg/L; for MIC: Staphylococcus aureus, MRSA
Protocol: Clinical MRSA isolates with multidrug resistance were obtained from the collection of the Research Institute of Antimicrobial Chemotherapy, Smolensk State Medical Academy.
The MICs were determined using a broth microdilution method according to [42]. Briefly, serial dilutions of the tested compounds in 50 µL of Mueller Hinton broth (BD) were prepared in 96-well microplates. The antibiotics vancomycin and linezolid (Sigma-Aldrich, St. Louis, MO, USA) were used as a positive control. Bacterial suspensions of the tested MRSA strains were prepared in the Mueller Hinton broth (BD) with a concentration 1 × 10^6 CFU/mL, and then 50 µL aliquots were added to the prepared microplates. The final concentrations of the antibiotics in the wells were 1, 0.5, 0.25, and 0.125 mg/L, for the tested compounds, and 2 mg/L for vancomycin and linezolid. Negative control (lack of bacterial cells) and growth control (lack of compound) wells were included in all plates. The microplates were incubated at 37 °C for 18 h. The growth was assessed visually after incubation, and the MIC was assumed as the lowest compound concentration at which a noticeable growth of the microorganisms was inhibited (no visible growth). All experiments were conducted in triplicate.

[3] = tested on: human embryonic fibroblasts (HEFs); assay: MTT cytotoxicity on human embryonic fibroblasts; assay type: cell-based; details: 24 h, ND = non-toxic in tested concentrations (up to 50 mg/L); for IC50: Homo sapiens, Fibroblast
Protocol: as §1

Caco-2 cells = assay: Caco-2 cell monolayer permeability; assay type: in vitro ADME, human
Protocol: The MultiScreen Caco-2 (ATCC cat. # HTB-37) test system (Millipore, St. Charles, MO, USA) was used to study the transport through a cell monolayer, according to the manufacturer’s instructions. Briefly, a study of transport from the apical membrane to the basolateral (A-B) area and in the opposite direction (B-A) was carried out on a 21-day culture of Caco-2 at a 1 µM concentration of the tested compound for 2 h. Monolayer integrity was verified by measuring electrical resistance (TEER) using a Millicell-ERS instrument. A TEER value of at least 3 KOhm/well was determined to be acceptable.

cytochrome P450 2C8 = molecular target: T1, cytochrome P450 2C8 (Homo sapiens, UniProt P10632); assay: Inhibition of cytochrome P450 isoform activity in human liver microsomes; assay type: in vitro ADME; details: N/A: no inhibition, tested 0.0046–10 μM
T1 construct: was investigated using human liver microsomes (XenoTech, USA); tissue XenoTech; host or cells: human liver microsomes
T1 sequence (P10632 1-490): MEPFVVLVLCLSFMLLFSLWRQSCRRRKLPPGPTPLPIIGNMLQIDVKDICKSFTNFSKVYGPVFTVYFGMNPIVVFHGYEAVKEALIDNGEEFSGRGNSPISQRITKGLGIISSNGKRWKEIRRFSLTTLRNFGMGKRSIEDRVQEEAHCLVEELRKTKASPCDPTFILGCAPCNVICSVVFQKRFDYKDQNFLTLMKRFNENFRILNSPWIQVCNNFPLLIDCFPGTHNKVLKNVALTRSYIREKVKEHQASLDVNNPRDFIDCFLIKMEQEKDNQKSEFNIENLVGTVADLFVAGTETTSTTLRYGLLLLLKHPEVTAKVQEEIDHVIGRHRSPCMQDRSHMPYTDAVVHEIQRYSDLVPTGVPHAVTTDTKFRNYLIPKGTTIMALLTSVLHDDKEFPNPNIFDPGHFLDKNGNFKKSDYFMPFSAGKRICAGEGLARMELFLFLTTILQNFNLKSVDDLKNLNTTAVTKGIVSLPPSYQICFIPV
Protocol: The effect of the tested compound on the activity of the main isoforms of human liver cytochrome P450 (1A2, 2C9, 2C19, 2D6, 3A4, 2C8) was investigated using human liver microsomes (XenoTech, USA) and their corresponding substrates: phenacetin, testosterone, tolbutamide, S-mephenytoin, dextromethorphan hydrobromide, and amodiaquine dihydrochloride dihydrate (Sigma-Aldrich, USA).
[…]. The reaction was stopped after 20 min by adding acetonitrile. The resulting metabolites were detected using UPLC–MS/MS. The calculation of the IC50 half-maximal inhibition concentration values was performed in the GraphPad Prism 6.0 (GraphPad Software Inc., USA) program, based on the equations of the experimental curves.

[4] = read-out: Solubility in water, mass concentration
[5] = read-out: Solubility in water, molar concentration
[6] = Figure 6, MRSA strain 2, read-out: MIC against 8 MRSA strains
[7] = Figure 6, MRSA strain 7, read-out: MIC against 8 MRSA strains
[8] = Figure 6, MRSA strain 8, read-out: MIC against 8 MRSA strains
[9] = Figure 6, MRSA strain 9, read-out: MIC against 8 MRSA strains
[10] = Figure 6, MRSA strain 13, read-out: MIC against 8 MRSA strains
[11] = Figure 6, MRSA strain 21, read-out: MIC against 8 MRSA strains
[12] = Figure 6, MRSA strain 48, read-out: MIC against 8 MRSA strains
[13] = Figure 6, MRSA strain 50, read-out: MIC against 8 MRSA strains
[14] = Caco-2, first value: A-B / apical

Molecule	solubility at 5 min [2, 4]	solubility at 5 min [2, 5]	MIC Range Against 8 MRSA Strains (MRSA clinical isolates)	MIC (MRSA clinical isolates; [6])	MIC (MRSA clinical isolates; [7])	MIC (MRSA clinical isolates; [8])	MIC (MRSA clinical isolates; [9])	MIC (MRSA clinical isolates; [10])	MIC (MRSA clinical isolates; [11])	MIC (MRSA clinical isolates; [12])	MIC (MRSA clinical isolates; [13])	Papp A-B (Caco-2 cells; Caco-2, 1 µM, 2 h)	Mass balance (Caco-2 cells; [14])	IC50 [1]	Selectivity Index (MRSA)	IC50 [3]	other results
CC(C)NCC(O)COc1cccc2ccccc12 (stereo not drawn) [Propranolol, propranolol]												44.6 10^-6 sm/s	91.7%				
CCOC(=O)c1[nH]c2cc(F)ccc2c1/N=N/N(C)CCN(C)C [BX-SI044, Ethyl (E)-3-(3-(2-(dimethylamino)ethyl)-3-methyltriaz-1-en-1-yl)-6-fluoro-1H-indole-2-carboxylate]			0.25 to 1 µg/mL												27		IC50 HepG2 ([1]; 24 h): 13 µg/mL (≈ 38.8 µM); Solubility in water, mass concentration [2]: 17.55 µg/mL (≈ 52.3 µM); IC50 HEF [3]: 19 µg/mL (≈ 56.7 µM)
O=c1c(O)c(-c2ccc(O)c(O)c2)oc2cc(O)cc(O)c12 [Quercetin, quercetin]																	IC50 (cytochrome P450 2C8): 2.6 µM
CCOC(=O)c1[nH]c2cc(F)ccc2c1/N=N/N1CCCN(C)CC1 [BX-SI039, Ethyl (E)-6-fluoro-3-((4-methyl-1,4-diazepan-1-yl)diazenyl)-1H-indole-2-carboxylate]	33.1 µg/mL	90 µM	0.5 to 1 µg/mL	1 µg/mL (≈ 2.88 µM)	1 µg/mL (≈ 2.88 µM)	1 µg/mL (≈ 2.88 µM)	1 µg/mL (≈ 2.88 µM)	1 µg/mL (≈ 2.88 µM)	0.5 µg/mL (≈ 1.44 µM)	1 µg/mL (≈ 2.88 µM)	0.5 µg/mL (≈ 1.44 µM)			16 µg/mL (≈ 46.1 µM)	20	19 µg/mL (≈ 54.7 µM)	

Further lines, with some results ahead:

solubility at 5 min [2, 4]	solubility at 5 min [2, 5]	MIC Range Against 8 MRSA Strains (MRSA clinical isolates)	MIC (MRSA clinical isolates; [6])	MIC (MRSA clinical isolates; [7])	MIC (MRSA clinical isolates; [8])	MIC (MRSA clinical isolates; [9])	MIC (MRSA clinical isolates; [10])	MIC (MRSA clinical isolates; [11])	MIC (MRSA clinical isolates; [12])	MIC (MRSA clinical isolates; [13])	Papp A-B (Caco-2 cells; Caco-2, 1 µM, 2 h)	Mass balance (Caco-2 cells; [14])	Molecule	IC50 [1]	Selectivity Index (MRSA)	IC50 [3]	other results
34.9 µg/mL	90 µM	0.5 to 1 µg/mL	1 µg/mL (≈ 2.71 µM)	0.5 µg/mL (≈ 1.35 µM)	0.5 µg/mL (≈ 1.35 µM)	1 µg/mL (≈ 2.71 µM)	0.5 µg/mL (≈ 1.35 µM)	0.5 µg/mL (≈ 1.35 µM)	0.5 µg/mL (≈ 1.35 µM)	0.5 µg/mL (≈ 1.35 µM)			CCOC(=O)c1[nH]c2cc(F)ccc2c1/N=N/N(C)CCc1ccccn1 [BX-SI048, Ethyl (E)-6-fluoro-3-(3-methyl-3-(2-(pyridin-2-yl)ethyl)triaz-1-en-1-yl)-1H-indole-2-carboxylate]	22 µg/mL (≈ 59.6 µM)	28	13 µg/mL (≈ 35.2 µM)	
2.77 µg/mL	10 µM	0.25 to 0.5 µg/mL	0.5 µg/mL (≈ 1.5 µM)	0.5 µg/mL (≈ 1.5 µM)	0.25 µg/mL (≈ 0.752 µM)	0.25 µg/mL (≈ 0.752 µM)	0.5 µg/mL (≈ 1.5 µM)	0.25 µg/mL (≈ 0.752 µM)	0.25 µg/mL (≈ 0.752 µM)	0.25 µg/mL (≈ 0.752 µM)			CCOC(=O)c1[nH]c2cc(F)ccc2c1/N=N/N1CCC(C)CC1 [BX-SI045, Ethyl (E)-6-fluoro-3-((4-methylpiperidin-1-yl)diazenyl)-1H-indole-2-carboxylate]	22 µg/mL (≈ 66.2 µM)	74	29 µg/mL (≈ 87.2 µM)	MIC (MRSA clinical isolates; 8 MRSA strains, read-out: lowest MIC values against most tested strains): 0.25 µg/mL (≈ 0.752 µM)
											1.48 10^-6 sm/s	96%	CNC(=C[N+](=O)[O-])NCCSCc1ccc(CN(C)C)o1 [Ranitidine, ranitidine]				
											1.14 10^-6 sm/s	92.1%	rhodamine				Asymmetry index (Caco-2 cells; Caco-2): 3.20; Papp B-A (Caco-2 cells; Caco-2, 1 µM, 2 h): 3.65 10^-6 sm/s; Mass balance (Caco-2 cells; Caco-2, second value: B-A / basolateral): 95.8%
11.7 µg/mL	350 µM	0.5 µg/mL (≈ 1.5 µM)	0.5 µg/mL (≈ 1.5 µM)	0.5 µg/mL (≈ 1.5 µM)	0.5 µg/mL (≈ 1.5 µM)	0.5 µg/mL (≈ 1.5 µM)	0.5 µg/mL (≈ 1.5 µM)	0.5 µg/mL (≈ 1.5 µM)	0.5 µg/mL (≈ 1.5 µM)	0.5 µg/mL (≈ 1.5 µM)			CCOC(=O)c1[nH]c2cc(F)ccc2c1/N=N/N1CCN(C)CC1 [BX-SI035, Ethyl ester ethyl (E)-6-fluoro-3-((4-methylpiperazin-1-yl)diazenyl)-1H-indole-2-carboxylate]	21 µg/mL (≈ 63 µM)	41	20 µg/mL (≈ 60 µM)	
